Literature values as cited in patent US20250339484A1, “COMPOSITION FOR BODY FAT REDUCTION CONTAINING EXTRACTS OF TARAXACUM PLATYCARPUM AND LONICERAE JAPONICA AS ACTIVE INGREDIENTS” (BOINBIO-CONVERGENCE CO., LTD., priority 2022, published 2025).

Conditions: clinical trials, about 3 g per day, after 3 months

CCCC/C=C/C=C/C=C\CCCCCCCC(=O)O [CLA, conjugated linolenic acid]
body weight reduction (average): 2.5 kg
